{"source": "paper PMC6941823", "about": "“A dispensable paralog of succinate dehydrogenase subunit C mediates standing resistance towards a subclass of SDHI fungicides in Zymoseptoria tritici” (PLoS Pathogens, 2019)", "key": {"[1]": {"test_system": "SQR (SDHC / altC) of IPO323 pTet::SDHC3 transformant, induced", "experiment": "Succinate-quinone (SQR) SDHI sensitivity assay on purified mitochondria, IPO323 pTet::SDHC3 induced", "format": "biochemical, Zymoseptoria tritici", "summary_of_the_method": "(§1)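 Succinate:ubiquinone/DCPIP reductase inhibition measured on purified mitochondria from Zymoseptoria tritici strains carrying either a single C-subunit gene (ZtSDHC1, ZtSDHC1_A84I or ZtSDHC3) or both ZtSDHC1 and ZtSDHC3; pTet::SDHC3 transformant tested under repressed and induced conditions.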"}, "[2]": {"test_system": "Zymoseptoria tritici field and genetically modified strains", "experiment": "Liquid culture assay for fungicide sensitivity determination", "format": "cell-based", "conditions": "liquid culture sensitivity, read-out: EC50 (nM) Mean", "summary_of_the_method": "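EC50s from liquid culture growth tests with field isolates and modified strains. Population monitoring used final concentrations 100 to 0.0001 mg.L^-1 in 10x steps (7 levels plus DMSO control); refined panel profiling used 0.5 mM to 0.47 nM in 4x steps (11 levels plus DMSO).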"}, "[3]": {"biological_target": "SQR of 06STD024 (SDHC / altC) mitochondria (Zymoseptoria tritici, UniProt A0A1X7RQW2+F9X9V6+F9XH52+O42772)", "experiment": "Succinate-quinone (SQR) SDHI sensitivity assay on purified mitochondria, 06STD024", "format": "biochemical", "summary_of_the_method": "as §1"}, "[4]": {"biological_target": "SQR (SDHC) of D024 SDHC3 KO mitochondria (Zymoseptoria tritici, UniProt F9X9V6+F9XH52+O42772)", "sequence (F9XH52 44-187)": "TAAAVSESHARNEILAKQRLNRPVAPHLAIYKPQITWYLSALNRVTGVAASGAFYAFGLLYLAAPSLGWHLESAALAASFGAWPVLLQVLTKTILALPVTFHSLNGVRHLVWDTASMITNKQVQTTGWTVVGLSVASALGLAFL", "sequence (O42772 19-297)": "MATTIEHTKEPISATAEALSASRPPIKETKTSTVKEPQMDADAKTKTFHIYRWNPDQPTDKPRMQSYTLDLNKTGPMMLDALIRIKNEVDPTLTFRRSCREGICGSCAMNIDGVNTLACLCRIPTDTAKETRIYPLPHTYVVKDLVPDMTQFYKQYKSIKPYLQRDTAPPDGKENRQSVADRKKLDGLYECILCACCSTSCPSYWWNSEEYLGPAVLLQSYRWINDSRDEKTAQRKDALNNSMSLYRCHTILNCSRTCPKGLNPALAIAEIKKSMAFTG", "sequence (F9X9V6 1-193)": "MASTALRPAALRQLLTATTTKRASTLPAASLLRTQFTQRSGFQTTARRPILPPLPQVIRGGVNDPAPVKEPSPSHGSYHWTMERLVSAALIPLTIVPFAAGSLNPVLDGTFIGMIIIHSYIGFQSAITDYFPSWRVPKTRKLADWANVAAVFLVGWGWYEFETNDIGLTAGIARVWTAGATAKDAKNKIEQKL", "sequence (F9WWR1 29-643 partner)": "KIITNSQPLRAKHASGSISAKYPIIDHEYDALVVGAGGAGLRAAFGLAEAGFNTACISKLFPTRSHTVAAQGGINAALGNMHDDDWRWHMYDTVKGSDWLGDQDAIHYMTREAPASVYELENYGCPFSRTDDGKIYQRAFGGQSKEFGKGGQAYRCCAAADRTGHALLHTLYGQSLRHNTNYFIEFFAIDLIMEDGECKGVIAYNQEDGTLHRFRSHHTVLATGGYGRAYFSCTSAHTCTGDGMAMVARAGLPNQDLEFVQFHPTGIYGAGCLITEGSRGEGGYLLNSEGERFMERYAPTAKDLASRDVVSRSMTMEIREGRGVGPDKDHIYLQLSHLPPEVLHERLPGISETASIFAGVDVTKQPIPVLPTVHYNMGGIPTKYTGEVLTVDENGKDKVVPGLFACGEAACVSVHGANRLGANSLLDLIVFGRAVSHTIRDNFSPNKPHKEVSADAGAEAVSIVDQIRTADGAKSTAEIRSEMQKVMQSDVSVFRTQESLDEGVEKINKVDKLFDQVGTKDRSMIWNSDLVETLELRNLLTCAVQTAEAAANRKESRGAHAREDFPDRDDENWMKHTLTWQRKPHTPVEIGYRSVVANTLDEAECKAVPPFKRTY", "experiment": "Succinate-quinone (SQR) SDHI sensitivity assay on purified mitochondria, 06STD024 SDHC3 KO", "format": "biochemical", "summary_of_the_method": "(§2)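 Mitochondria purified from each strain were used for succinate:ubiquinone/DCPIP reductase assays, with suspensions adjusted to similar initial velocity (1 OD595nm hour^-1). Inhibitor was tested at 0.047 nM–50 μM in 4x steps (11 concentrations plus DMSO). IC50 came from non-linear fits of absorbance slopes (OD/min) against log concentration.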"}, "[5]": {"biological_target": "C_A84I-SQR (SDHC_A84I), IPO323_Flu21 mitochondria (Zymoseptoria tritici, UniProt F9X9V6+F9XH52+O42772, A84I)", "sequence (F9XH52 44-187, stated change not applied)": "as the sequence (F9XH52 44-187) above", "sequence (O42772 19-297, stated change not applied)": "as the sequence (O42772 19-297) above", "sequence (F9X9V6 whole entry, stated change not applied)": "as the sequence (F9X9V6 1-193) above", "sequence (F9WWR1 29-643 partner)": "as the sequence (F9WWR1 29-643 partner) above", "experiment": "Succinate-quinone (SQR) SDHI sensitivity assay on purified mitochondria, IPO323_Flu21", "format": "biochemical", "procedure": "Succinate-ubiquinone oxidoreductase (SQR) inhibition assays were performed on mitochondrial extracts from a panel of strains that were (i) either carrying a unique C-subunit encoding gene (ZtSDHC1, ZtSDHC1_A84I or Zt-SDHC3), or (ii) carrying two C-subunit encoding genes ZtSDHC1 and ZtSDHC3 (Table 1).\nBiomass production, mitochondrial extraction and purification were performed as described in [14]. Succinate: ubiquinone/DCPIP sensitivity tests were performed as described in [14] with minor modification. The different mitochondrial suspensions were adjusted to similar initial velocity (1 OD595nm hour^-1) and inhibitor concentrations ranged between 0.047nM and 50μM with uniform 4x dilution steps (11 concentrations + DMSO control). Calculated absorbance slopes (OD/min) were used for IC50 calculations using GraphPad Prism 6.07 software non-linear curve fitting against log inhibitor concentrations."}, "[6]": {"biological_target": "WT-SQR (SDHC), IPO323 mitochondria (Zymoseptoria tritici, UniProt F9X9V6+F9XH52+O42772)", "experiment": "Succinate-quinone (SQR) SDHI sensitivity assay on purified mitochondria, IPO323", "format": "biochemical", "conditions": "mitochondria of IPO323; mean of three determinations ± SD; read-out: Succinate-quinone IC50, IPO323 (SDHC)", "summary_of_the_method": "as §2"}, "[7]": {"biological_target": "SQR (SDHC / altC) of IPO323 pTet::SDHC3 transformant, repressed (Zymoseptoria tritici, UniProt A0A1X7RQW2+F9X9V6+F9XH52+O42772)", "sequence (F9XH52 44-187)": "as the sequence (F9XH52 44-187) above", "sequence (O42772 20-297)": "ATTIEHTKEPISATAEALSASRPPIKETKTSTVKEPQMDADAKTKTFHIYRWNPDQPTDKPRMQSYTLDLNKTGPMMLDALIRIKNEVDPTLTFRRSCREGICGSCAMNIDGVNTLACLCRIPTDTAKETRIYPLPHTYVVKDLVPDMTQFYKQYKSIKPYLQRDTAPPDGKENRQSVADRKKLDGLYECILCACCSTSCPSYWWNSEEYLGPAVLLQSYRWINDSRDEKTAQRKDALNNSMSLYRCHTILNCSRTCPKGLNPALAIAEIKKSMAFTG", "sequence (F9X9V6 1-193)": "as the sequence (F9X9V6 1-193) above", "sequence (A0A1X7RQW2 36-181)": "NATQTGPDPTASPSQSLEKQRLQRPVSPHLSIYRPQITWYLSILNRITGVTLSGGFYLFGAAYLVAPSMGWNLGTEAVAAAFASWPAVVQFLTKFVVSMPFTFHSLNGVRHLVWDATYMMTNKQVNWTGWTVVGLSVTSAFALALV", "sequence (F9WWR1 41-643 partner)": "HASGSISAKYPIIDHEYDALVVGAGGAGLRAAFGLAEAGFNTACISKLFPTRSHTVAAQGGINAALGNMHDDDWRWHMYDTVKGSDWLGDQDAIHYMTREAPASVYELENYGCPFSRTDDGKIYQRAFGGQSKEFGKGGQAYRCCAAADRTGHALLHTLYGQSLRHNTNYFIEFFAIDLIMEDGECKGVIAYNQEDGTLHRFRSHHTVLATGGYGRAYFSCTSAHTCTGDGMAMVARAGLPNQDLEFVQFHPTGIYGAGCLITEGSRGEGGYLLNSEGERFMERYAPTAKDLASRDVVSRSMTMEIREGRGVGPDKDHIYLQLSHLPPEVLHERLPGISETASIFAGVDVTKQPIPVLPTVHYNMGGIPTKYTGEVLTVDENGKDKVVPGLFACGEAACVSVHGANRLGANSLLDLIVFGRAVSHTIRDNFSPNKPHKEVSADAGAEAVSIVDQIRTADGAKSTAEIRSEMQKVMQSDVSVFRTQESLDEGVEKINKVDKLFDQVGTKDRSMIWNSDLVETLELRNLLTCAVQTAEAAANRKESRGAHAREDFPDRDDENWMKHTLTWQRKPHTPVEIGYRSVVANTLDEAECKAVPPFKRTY", "experiment": "Succinate-quinone (SQR) SDHI sensitivity assay on purified mitochondria, IPO323 pTet::SDHC3 repressed", "format": "biochemical", "summary_of_the_method": "as §1"}, "[8]": {"biological_target": "altC-SQR (altC) of D024 SDHC1 KO mitochondria (Zymoseptoria tritici, UniProt A0A1X7RQW2+F9X9V6+O42772)", "experiment": "Succinate-quinone (SQR) SDHI sensitivity assay on purified mitochondria, 06STD024 SDHC1 KO", "format": "biochemical", "summary_of_the_method": "as §1"}, "[9]": {"conditions": "IC50 ratio compared to IPO323 values"}}, "note": "Read-outs that look alike come from different tables or passages of the source.", "data": [{"smiles": "CC(C)C1C2CCC1c1c(NC(=O)c3cn(C)nc3C(F)F)cccc12", "note": "(stereo not drawn) [Isopyrazam]", "values": [{"measurement": "RF (resistance factor), pTet Induced (SDHC / altC)", "setting": "[1]; [9]", "value": 2.1}, {"measurement": "IC50", "setting": "[1]; IPO323 pTet::SDHC3 transformant grown in the absence of doxycycline, mean of three ± SD", "value": "0.0017 ± 0.0004", "unit": "µM"}, {"measurement": "EC50", "setting": "[2]; strain 06STD024", "value": 108, "unit": "nM"}, {"measurement": "EC50", "setting": "[2]; strain 07STGB009", "value": 75.5, "unit": "nM"}, {"measurement": "EC50", "setting": "[2]; strain 09STD041", "value": 116, "unit": "nM"}, {"measurement": "EC50", "setting": "[2]; strain 09STD053", "value": 56, "unit": "nM"}, {"measurement": "EC50", "setting": "[2]; strain 09STF011", "value": 109, "unit": "nM"}, {"measurement": "EC50", "setting": "[2]; strain 09STF037", "value": 46.1, "unit": "nM"}, {"measurement": "EC50", "setting": "[2]; strain 09STF112", "value": 66.2, "unit": "nM"}, {"measurement": "EC50", "setting": "[2]; strain 09STIR20.3", "value": 112, "unit": "nM"}, {"measurement": "EC50", "setting": "[2]; strain Flu21 (SDHC1_A84I)", "value": 785, "unit": "nM"}, {"measurement": "EC50", "setting": "[2]; strain IPO323", "value": 46, "unit": "nM"}, {"measurement": "EC50", "setting": "[2]; strain IPO94269", "value": 72.8, "unit": "nM"}, {"measurement": "EC50", "setting": "[2]; strain KO_SDHC1_T1", "value": 332, "unit": "nM"}, {"measurement": "EC50", "setting": "[2]; strain KO_SDHC1_T3", "value": 293, "unit": "nM"}, {"measurement": "EC50", "setting": "[2]; strain KO_SDHC3_T4", "value": 83.7, "unit": "nM"}, {"measurement": "EC50", "setting": "[2]; strain KO_SDHC3_T13", "value": 96.7, "unit": "nM"}, {"measurement": "EC50", "setting": "[2]; strain pTet::SDHC3_I78A_T1", "value": 60.4, "unit": "nM"}, {"measurement": "EC50", "setting": "[2]; strain pTet::SDHC3_I78A_T5", "value": 120, "unit": "nM"}, {"measurement": "EC50", "setting": "[2]; strain pTet::SDHC3_I78A_T15", "value": 81.1, "unit": "nM"}, {"measurement": "EC50", "setting": "[2]; strain pTet::SDHC3_I78A_T35", "value": 17, "unit": "nM"}, {"measurement": "EC50", "setting": "[2]; strain pTet::SDHC3_T1", "value": 195, "unit": "nM"}, {"measurement": "EC50", "setting": "[2]; strain pTet::SDHC3_T2", "value": 284, "unit": "nM"}, {"measurement": "EC50", "setting": "[2]; strain pTet::SDHC3_T3", "value": 175, "unit": "nM"}, {"measurement": "EC50", "setting": "[2]; strain pTet::SDHC3_T7", "value": 233, "unit": "nM"}, {"measurement": "RF (resistance factor), 06STD024 (SDHC / altC)", "setting": "[3]; [9]", "value": 3.3}, {"measurement": "IC50", "setting": "[3]; mitochondria of field isolate 06STD024, mean of three ± SD", "value": "0.0026 ± 0.0006", "unit": "µM"}, {"measurement": "RF (resistance factor), D024 SDHC3 KO (SDHC)", "setting": "[4]; [9]", "value": 0.7}, {"measurement": "IC50", "setting": "[4]; mitochondria of 06STD024 ZtSDHC3 deletion mutant, mean of three ± SD", "value": "0.0006 ± 0.0002", "unit": "µM"}, {"measurement": "RF (resistance factor), IPO323_Flu21 (SDHC_A84I)", "setting": "[5]; [9]", "value": 6.4}, {"measurement": "IC50", "setting": "[5]; mitochondria of UV mutant IPO323_Flu21, mean of three ± SD", "value": "0.0052 ± 0.0026", "unit": "µM"}, {"measurement": "IC50", "setting": "[6]", "value": "0.0008 ± 0.0001", "unit": "µM"}, {"measurement": "RF (resistance factor), pTet Repressed (SDHC / altC)", "setting": "[7]; [9]", "value": 1.5}, {"measurement": "IC50", "setting": "[7]; IPO323 pTet::SDHC3 transformant grown in presence of 30 mg.L^-1 doxycycline, mean of three ± SD", "value": "0.0012 ± 0.0003", "unit": "µM"}, {"measurement": "RF (resistance factor), D024 SDHC1 KO (altC)", "setting": "[8]; [9]", "value": 2.9}, {"measurement": "IC50", "setting": "[8]; mitochondria of 06STD024 ZtSDHC1 deletion mutant (pure altC-SQR), mean of three ± SD", "value": "0.0024 ± 0.0005", "unit": "µM"}]}]}
